# According to patent US20150231236A1, “METHODS FOR TREATING PATIENTS WITH HYPERCHOLESTEROLEMIA THAT IS NOT ADEQUATELY CONTROLLED BY MODERATE-DOSE STATIN THERAPY” (Regeneron Pharmaceuticals, Inc., priority 2014, published 2015):
# Legend:
# [1] = tested on: patients with hypercholesterolemia at high CV risk not adequately controlled with rosuvastatin (10 mg or 20 mg); assay: Example 3: safety, treatment-emergent adverse events in pooled treatment groups; details: Safety Population; pooled treatment groups
# [2] = tested on: patients with hypercholesterolemia at high CV risk not adequately controlled with rosuvastatin (10 mg or 20 mg); assay: Example 3: randomized, double-blind trial, lipid efficacy of mAb316P add-on to rosuvastatin vs EZE add-on or rosuvastatin dose doubling; assay type: in vivo, human; details: for Proportion of Patients Reaching LDL-C goal (%) / LDL-C W24 % change from baseline, LS mean (SE): week 24; for Proportion of Patients Reaching LDL-C goal (%): LDL-C <70 mg/dL very high risk or <100 mg/dL high risk; for LDL-C W24 % change from baseline, LS mean (SE): ITT population, treatment arm as labelled
# Experimental: The present study was a randomized, double-blind, active-comparator, parallel-group study in patients at high CV risk with non-FH or heFH who are not adequately controlled with rosuvastatin (10 mg or 20 mg) with or without other lipid-modifying therapy (LMT) (excluding EZE). The study design is illustrated in FIG. 2. Patients who entered the study were taking either rosuvastatin 10 mg or rosuvastatin 20 mg. The former patients were randomized to 1 of 3 treatment arms (arms 1 to 3); the latter patients were randomized to 1 of 3 treatment arms (arms 4 to 6). The treatment arms are as follows:
# (B) a double-blind treatment period of 24 weeks. […] The patient/caregiver administered subsequent injections outside of the clinic according to the dosing schedule. […] The last dose of daily oral study drugs was administered at week 24.
# The first injection of study drug was administered at the clinical site, as soon as possible after the patient was randomized into the study. The patient was monitored at the clinical site for at least 30 minutes following the first injection. The patient/caregiver administered subsequent injections outside of the clinic, according to the dosing schedule.
# The primary efficacy endpoint was the percent change in calculated LDL-C from baseline to week 24, which is defined as: 100× (calculated LDL-C value at week 24−calculated LDL-C value at baseline)/calculated LDL-C value at baseline. The baseline calculated LDL-C value was the last LDL-C level obtained before the first double-blind study drug injection. The calculated LDL-C at week 24 was the LDL-C level obtained within the week 24 analysis window and during the main efficacy period. The main efficacy period is defined as the time from the first double-blind study drug injection up to 21 days after the last double-blind study drug injection or up to the upper limit of the week 24 analysis window, whichever comes first.
# Total-C, HDL-C, TG, ApoB, ApoA-1, and Lp(a) were directly measured by a central laboratory. LDL-C was calculated using the Friedewald formula. […] Non-HDL-C was calculated by subtracting HDL-C from the total-C. Ratio ApoB/ApoA-1 was calculated.
# For clarification, the ITT analysis is defined for patients in the ITT population and includes all endpoint assessments in an analysis window, regardless of study treatment dosing status (i.e. includes post-treatment assessments). The on-treatment analysis is defined for patients in the mITT population and includes all endpoint assessments from the first double-blind study drug (capsule or injection, whichever comes first) up to 21 days after the last double-blind study drug injection or 3 days after the last capsule intake, whichever comes first (i.e. includes assessments in the efficacy treatment period).
# [3] = Week 4, baseline rosuvastatin 10 mg
# [4] = Week 4, baseline rosuvastatin 20 mg
# [5] = Week 8, baseline rosuvastatin 10 mg
# [6] = Week 8, baseline rosuvastatin 20 mg
# [7] = Week 12, baseline rosuvastatin 10 mg
# [8] = Week 12, baseline rosuvastatin 20 mg
# [9] = Week 16, baseline rosuvastatin 10 mg
# [10] = Week 16, baseline rosuvastatin 20 mg
# [11] = Week 24, baseline rosuvastatin 10 mg
# [12] = Week 24, baseline rosuvastatin 20 mg
compound,measurement,setting,value
"CC(C)c1nc(N(C)S(C)(=O)=O)nc(-c2ccc(F)cc2)c1/C=C/[C@@H](O)C[C@@H](O)CC(=O)O [rosuvastatin, reference compound]",General Allergic TEAEs,[1],7 (6.9%) patients (%)
same,SOC General disorders and administration site conditions,[1],10 (9.9%) patients (%)
same,SOC Psychiatric disorders,[1],3 (3.0%) patients (%)
same,"SOC Respiratory, thoracic and mediastinal disorders",[1],5 (5.0%) patients (%)
same,SOC Skin and subcutaneous tissue disorders,[1],6 (5.9%) patients (%)
same,TEAEs,[1],68 (67.3%) patients (%)
same,Treatment-emergent SAEs,[1],8 (7.9%) patients (%)
same,Treatment-emergent cardiovascular events adjudicated positively,[1],1 (1.0%) patients (%)
same,Treatment-emergent neurocognitive disorders,[1],2 (2.0%) patients (%)
same,Treatment-emergent neurologic disorders,[1],2 (2.0%) patients (%)
same,cough,[1],3 (3.0%) patients (%)
same,discontinued study treatment early due to a treatment emergent adverse event,[1],5 (5.0%) patients (%)
same,injection site reactions (ISRs),[1],2 (2.0%) patients (%)
same,Proportion of Patients Reaching LDL-C goal (%),[2]; Baseline Rosuvastatin 10 mg,45.0%
same,Proportion of Patients Reaching LDL-C goal (%),[2]; Baseline Rosuvastatin 20 mg,40.1%
same,Calculated LDL-C LS mean (SE) Value,"[2]; Baseline, baseline rosuvastatin 10 mg",105.9 (5.2) mg/dL
same,Calculated LDL-C LS mean (SE) Value,"[2]; Baseline, baseline rosuvastatin 20 mg",113.7 (6.0) mg/dL
same,"LDL-C W24 % change from baseline, LS mean (SE)",[2]; listed as RSV 20,−16.3%
same,"LDL-C W24 % change from baseline, LS mean (SE)",[2]; listed as RSV 40,−15.9%
same,Calculated LDL-C LS mean (SE) Value,[2]; [3],89.1 (3.6) mg/dL
same,"Calculated LDL-C LS mean (SE), % Change from Baseline",[2]; [3],−13.1 (3.2) %
same,"Calculated LDL-C LS mean (SE), Change from Baseline",[2]; [3],−16.2 (3.6)
same,Calculated LDL-C LS mean (SE) Value,[2]; [4],92.0 (3.4) mg/dL
same,"Calculated LDL-C LS mean (SE), % Change from Baseline",[2]; [4],−20.0 (5.3) %
same,"Calculated LDL-C LS mean (SE), Change from Baseline",[2]; [4],−25.1 (3.4)
same,Calculated LDL-C LS mean (SE) Value,[2]; [5],85.4 (4.3) mg/dL
same,"Calculated LDL-C LS mean (SE), % Change from Baseline",[2]; [5],−17.0 (3.8) %
same,"Calculated LDL-C LS mean (SE), Change from Baseline",[2]; [5],−19.9 (4.3)
same,Calculated LDL-C LS mean (SE) Value,[2]; [6],91.9 (4.3) mg/dL
same,"Calculated LDL-C LS mean (SE), % Change from Baseline",[2]; [6],−21.2 (5.7) %
same,"Calculated LDL-C LS mean (SE), Change from Baseline",[2]; [6],−25.2 (4.3)
same,Calculated LDL-C LS mean (SE) Value,[2]; [7],85.7 (4.1) mg/dL
same,"Calculated LDL-C LS mean (SE), % Change from Baseline",[2]; [7],−17.1 (4.1) %
same,"Calculated LDL-C LS mean (SE), Change from Baseline",[2]; [7],−19.6 (4.1)
same,Calculated LDL-C LS mean (SE) Value,[2]; [8],90.4 (4.3) mg/dL
same,"Calculated LDL-C LS mean (SE), % Change from Baseline",[2]; [8],−22.1 (5.3) %
same,"Calculated LDL-C LS mean (SE), Change from Baseline",[2]; [8],−26.6 (4.3)
same,Calculated LDL-C LS mean (SE) Value,[2]; [9],83.6 (4.7) mg/dL
same,"Calculated LDL-C LS mean (SE), % Change from Baseline",[2]; [9],−19.3 (4.8) %
same,"Calculated LDL-C LS mean (SE), Change from Baseline",[2]; [9],−21.6 (4.7)
same,Calculated LDL-C LS mean (SE) Value,[2]; [10],93.8 (4.8) mg/dL
same,"Calculated LDL-C LS mean (SE), % Change from Baseline",[2]; [10],−18.5 (6.3) %
same,"Calculated LDL-C LS mean (SE), Change from Baseline",[2]; [10],−23.3 (4.8)
same,Calculated LDL-C LS mean (SE) Value,[2]; [11],85.4 (4.3) mg/dL
same,"Calculated LDL-C LS mean (SE), % Change from Baseline",[2]; [11],−16.3 (4.1) %
same,"Calculated LDL-C LS mean (SE), Change from Baseline",[2]; [11],−19.9 (4.3)
same,Calculated LDL-C LS mean (SE) Value,[2]; [12],95.5 (5.7) mg/dL
same,"Calculated LDL-C LS mean (SE), % Change from Baseline",[2]; [12],−15.9 (7.1) %
same,"Calculated LDL-C LS mean (SE), Change from Baseline",[2]; [12],−21.5 (5.7)
same,proportion of patients who reached LDL-C level of <70 mg/dL (1.81 mmol/L) at Week 24,[2]; baseline rosuvastatin 10 mg regimen,31.3%
same,proportion of patients who reached LDL-C level of <70 mg/dL (1.81 mmol/L) at Week 24,[2]; baseline rosuvastatin 20 mg regimen,29.9%
